According to patent publication US6911432B2, “Drugs, foods or drinks with the use of algae-derived physiologically active substances” (priority 1997, dated 2005):

What was measured:
[1] = tested on: HL-60 cells; test: apoptosis-inducing assay, cell morphology under an optical microscope; format: cell-based, human
Description: Human promyelocytic leukemia cell HL-60 (ATCC CCL-240) was incubated at 37° C. in RPMI 1640 medium (manufactured by Gibco) supplemented with 10% of fetal bovine serum (JRH Bioscience) which had been treated at 56° C. for 30 minutes, and suspended in the same medium at a concentration of 500 cells/90 μl. Each 90 μl portion of the suspension was distributed into each well of a 96 well plate (manufactured by Falcon). To the suspension in each well was added 10 μl of the above-mentioned acid decomposition solution, a 10-fold dilution of the solution or water, and incubated with 5% CO2 at 37° C. After 24 hour and 48 hour from the initiation of the incubation, the cell morphology was observed under an optical microscope. Then, according to the MTT method described in “Apoptosis Jikken Protocol” (Syuzyun-sha, Tanuma, Seiichi ed., pp. 156 (1994)), 5 mg/ml of 3-(4,5-dimethylthiazole-2-yl)-2,5-diphenyltetrazolium bromide (manufactured by Sigma) and 10 μl of phosphate buffered saline solution were added to the culture and the incubation was continued for additional 4 hours. Then, 100 μl of 2-propanol containing 0.04 N hydrochloric acid was added to the culture, and the mixture was thoroughly stirred. An absorbance at 590 nm was measured and the number of viable cells was calculated from the absorbance measured for each of the wells, which was compared each other.
Each elution peak was fractionated, collected, evaporated to dryness under reduced pressure and then dissolved in 300 μl of water. Each fraction was sterilized by filtration and its 10 μl portion was placed in a well of a 96 well microtiter plate. Then, 90 μl of RPMI 1640 medium (manufactured by Nissui) containing 10% fetal bovine serum (manufactured by Gibco) and 5,000 HL-60 cells (ATCC CCL-240) was added thereto, followed by incubation at 37° C. for 48 hours with 5% CO2. The cell morphology was observed under an optical microscope. Then, 5 mg/ml 3-(4,5-dimethylthiazole-2-yl)-2,5-diphenyltetrazolium bromide and 10 μl of phosphate buffered saline solution were added thereto and the incubation was continued for additional 4 hours. To the culture was added 100 μl of 2-propanol containing 0.04 N hydrochloric acid and the resultant mixture was thoroughly stirred. The absorbance at 590 nm was measured to determine a cell proliferation rate.

[2] = tested on: spleen lymphocytes; test: lymphocyte blastgenesis induced by Concanavalin A, 3H-thymidine uptake; format: cell-based, ddY mouse
Description: A spleen was taken out from a ddY mouse (Nippon SLC; male, 7 weeks old), finely minced and suspended in RPMI-1640 medium (Gibco) containing 10% fetal bovine serum (HyClone) to obtain a single cell suspension. The cell suspension was seeded into a plastic Petri dish, incubated at 37° C. for 2 hours in a carbon dioxide incubator. Adhesive cells adhered to the Petri dish were removed and non-adhesive cells were used as spleen lymphocytes. 200 μl of 2×10^6 cells/ml spleen lymphocytes suspension was seeded into each well of 96 well microtiter plate. Agarobiose at varying concentration was added to the wells other than the control well. Furthermore, to all the wells was added 5 μg of Con A (Nacalai Tesque) and the plate was incubated at 37° C. for one day in a carbon dioxide incubator. After incubation, 1 μCi of ^3H-thymidine was added to each well and incubation was continued for additional one day. Then, its uptake into cells was measured using a liquid scintillation counter.
FIG. 34 illustrates the relation between the agarobiose concentration and the ^3H-thymidine uptake in lymphocyte blastgenesis induced by Con A. The horizontal axis represents the agarobiose concentration and the vertical axis represents the ^3H-thymidine uptake (cpm). The open bar and the shaded bar represent the ^3H-thymidine uptake without stimulation and with stimulation by Con A, respectively. […]

[3] = tested on: spleen lymphocytes; test: mixed lymphocyte reaction, 3H-thymidine uptake; format: cell-based, BALB/c mouse and C57BL/6 mouse
Description: Spleens were taken out from a BALB/c mouse (Nippon SLC; male, 6 weeks old) and a C57BL/6 mouse (Nippon SLC; male, 6 weeks old) and spleen lymphocytes were obtained by the above-described method. Each cell suspension was adjusted to a concentration of 2×10^6 cell/ml, 100 μl portions from respective suspensions were mixed together and seeded in a 96 well microtiter plate. Agarobiose at varying concentration was added to the wells other than the control well, and the plate was incubated at 37° C. for 4 days in a carbon dioxide incubator. After incubation, 1 μCi of ^3H-thymidine was added to each well, and the plate was incubated for additional 1 day. Its uptake into cells was measured using a liquid scintillation counter.
That is, FIG. 35 illustrates the relation between the agarobiose concentration and the ^3H-thymidine uptake in the mixed lymphocyte reaction. The horizontal axis represents the agarobiose concentration and the vertical axis represents ^3H-thymidine uptake (cpm). The open bar and the shaded bar represent ^3H-thymidine uptake in case where cells from either one of the lines were used independently, and in case where mixed cells from both of the lines were used, respectively. […] Thus, the inhibitory activity against lymphocyte activation of agarobiose has been recognized.

[4] = tested on: RAW 264.7 cells; test: NO production induced by LPS and IFN-γ after pre-incubation with sample; format: cell-based, mouse; conditions: 10 μl of 5,000 μM solution, pre-incubation 1, 2, 4 or 6 hours before stimulation
Description: (4) RAW 264.7 cells were suspended in the Dulbecco's modified Eagle's medium described in Example 20-(1) at a concentration of 3×10^5 cells/ml, and 500 μl portions thereof were placed in respective wells of a 48 well microtiter plate. The plate was incubated for 37° C. for 10 hours in the presence of 5 % carbon dioxide. To the wells was added 10 μl of aqueous 5,000 μM agarobiose solution and incubated for additional 1, 2, 4 or 6 hours. Then, the culture supernatant was removed from the well and to each well were added 500 μl of fresh Dulbecco's modified Eagle's medium and then 10 μl of aqueous 2.5 μg/ml LPS and aqueous 800 U/ml interferon-Υ (IFN-Υ, sold by Cosmobio, GZM-MG-IFN) solution. The plate was incubated for 1 hour. Then, the culture supernatant was removed from the well and to each well was added 500 μl of fresh Dulbecco's modified Eagle's medium and the plate was incubated for additional 16 hours. The concentration of NO2^− produced by oxidation of NO in the medium was measured according to the same manner as that described in Example 20-(1). As control groups, a group to which neither LPS nor IFN-Υ was added and a group to which agarobiose was not added were provided. All the measurements were carried out in duplicate.

OC[C@H]1O[C@@H](O[C@H]2[C@H]3OC[C@@H]2OC(O)[C@H]3O)[C@H](O)[C@@H](O)[C@H]1O (mixture of isomers) [Agarobiose, agarobiose]
apoptosis corpuscles under an optical microscope ([1]; 78 μg/ml): apoptosis corpuscles were observed | apoptosis-inducing activity (apoptosis corpuscles, in words) ([1]; preparations and fractions): had both activities | inhibitory activity against lymphocyte blastgenesis induced by Con A (in words) [2]: dose-dependent inhibitory activity | inhibition of mouse lymphocyte proliferation stimulated by mitogen ([2]; Con A, 100 μg/ml): almost completely inhibits | inhibitory activity against mixed lymphocyte reaction (in words) [3]: dose-dependent inhibitory activity | inhibition of lymphocytes activation by stimulation with an alloantigen ([3]; 10 μg/ml): almost completely inhibits | inhibition of NO production induced by LPS and IFN-γ (in words) [4]: the longer the pre-incubation time was, the higher the inhibition
